Results from patent publication US20250313569A1, “Pharmaceutical Compounds And Compositions As Modulators Of MAS-Related G-Protein Receptor X2” (Enanta Pharmaceuticals, Inc., priority 2024, published 2025).

What was measured:
[1] = biological target: T1, human MRGPRX2 (Homo sapiens, UniProt Q96LB1); test: MRGPRX2 IP-1 Gq HTRF assay in HEK293 cells stably expressing human MRGPRX2, Cortistatin-14 at EC75; type: cell-based; conditions: 2 hours at 37° C., cellular IP-1
T1 construct: expressed in transfected cells; host or cells: HEK293
T1 sequence (Q96LB1 1-330): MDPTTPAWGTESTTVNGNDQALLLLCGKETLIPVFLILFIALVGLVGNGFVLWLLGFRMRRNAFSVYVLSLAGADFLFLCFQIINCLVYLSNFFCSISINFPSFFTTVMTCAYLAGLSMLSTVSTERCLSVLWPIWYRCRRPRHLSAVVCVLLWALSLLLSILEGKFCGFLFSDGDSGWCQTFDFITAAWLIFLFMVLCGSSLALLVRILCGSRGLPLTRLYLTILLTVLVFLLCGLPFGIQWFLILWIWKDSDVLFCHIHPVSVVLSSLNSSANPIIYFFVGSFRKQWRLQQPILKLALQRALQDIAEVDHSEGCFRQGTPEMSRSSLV
Experimental: HEK293 cells stably expressing human MRGPRX2 were grown in Dulbecco's Modified Eagle Medium (DMEM) supplemented with 10% fetal bovine serum (FBS), 1% Glutamax, and 1 μg/mL of puromycin. Cells were maintained in a 37° C., 5% CO2 humidified incubator.
Cells were plated in a 384-well assay plate at a density of 20,000 cells per well overnight. Compounds were solubilized at 10 mM in DMSO and added as a 10-point curve using an ECHO acoustic liquid handler. On the day of the assay, Cortistatin-14 was diluted in assay buffer (provided by IP-One-Gq-HTRF kit purchased from Cisbio, 62IPAPEJ) and added to the assay plate at a final concentration corresponding to the predetermined EC75. Plates were incubated at 37° C. for 2 hours prior to addition of HTRF detection reagents per the manufacturer's instructions. The plates were read on a Perkin Elmer Envision plate reader. The HTRF ratio and cellular IP-1 levels were calculated. XLfit was used to calculate an EC50 value for each compound using a 4-parameter logistic curve fitting model. EC50 ranges are reported as follows: A<100 nM; B 0.1-1 μM; C>1 μM.

[2] = biological target: T2, MRGPRX2 LAD2 (Homo sapiens, UniProt Q96LB1); test: LAD2 β-hexosaminidase release assay (degranulation), Cortistatin-14 at EC75; type: cell-based; conditions: LAD2 cells; 1 hour compound incubation, Cortistatin-14 at EC75 for 30 minutes; percent degranulation (β-hexosaminidase)
T2 construct: host or cells: LAD2 human mast cells
T2 sequence (Q96LB1 1-330): T1 sequence (Q96LB1 1-330)
Experimental: LAD2 cells obtained from the NIH were cultured in StemPro34 (Gibco) serum-free media supplemented with GlutaMax, penicillin and streptomycin, and 100 ng/mL SCF (Invitrogen). Cells were maintained in a 37° C., 5% CO2 humidified incubator at a concentration of 2-5E5 cells/mL, with hemidepletion once a week.
One day prior to the assay, cells were starved of SCF at a concentration of 2.3E5 cells/mL. On the day of the assay cells were washed twice in Tyrode's Buffer containing 0.04% BSA (assay buffer) and plated in a 96 well-v-bottom assay plate at 20,000 cells per well in 80 μL of assay buffer. Compounds were solubilized at 10 mM DMSO and added as a 10-fold overconcentrated 8-point curve in assay buffer in a volume of 10 μL using the JANUS liquid handler. Assay plates were incubated for 1 hour at 37° C. Cortistatin-14 was diluted in assay buffer to […] its predetermined EC75 and added to the assay plates in a volume of 10 μL. Assay plates were incubated at 37° C. for 30 minutes. After incubation, cells were pelleted and 50 μL of supernatant from each well was transferred to a 96 well flat bottom plate containing 100 μL of substrate solution (3.5 mg/mL p-Nitrophenyl-N-acetyl-β-D-glucosaminide (Sigma Aldrich) in 40 mM Citrate Buffer (Thermo Fisher)). The remaining cell pellets were lysed with 150 μL of 0.1% Triton-X-100 and mixed thoroughly. 50 μL of lysate was transferred to a 96-well flat bottom plate containing 100 μL of substrate solution. Plates with supernatants and lysates were incubated at 37° C. for 90 minutes prior to addition of 50 μL of 400 mM Glycine buffer (pH 10.7). The plates were read on a Perkin Elmer Envision plate reader at an Abs of 405 nanometers. Percent degranulation was calculated and Xlfit was used to calculate an EC50 value for each compound using a 4-parameter logistic curve fitting model. EC50 ranges are reported as follows: A<100 nM; B 0.1-1 μM; C>1 μM.

| EC50 [1] [nM] | EC50 [2] [nM] | Structure (SMILES) |
| --- | --- | --- |
| < 100 |  | COCC(=O)N1C[C@@H](NC(=O)c2cccc(NS(C)(=O)=O)c2)C[C@@H](Nc2cc(C(F)(F)F)nc3ccc(Cl)cc23)C1 [Example 14] |
| 100 to 1000 |  | CS(=O)(=O)Nc1cccc(C(=O)N[C@H]2CC(Nc3cc(C(F)(F)F)nc4ccc(Cl)cc34)CN(C(=O)c3cccnc3)C2)c1 (some centres unmarked) [Example 19] |
| 100 to 1000 |  | CC(=O)N1CC(Nc2cc(C(F)(F)F)nc3ccccc23)C[C@H](NC(=O)c2cccc(NS(C)(=O)=O)c2)C1 (some centres unmarked) [Example 22] |
| < 100 |  | CC(=O)N1C[C@@H](NC(=O)c2ccc(F)cc2)C[C@@H](Nc2cc(C(F)(F)F)nc3ccc(Cl)cc23)C1 [Example 23] |
| 100 to 1000 |  | CC(=O)N1C[C@@H](NC(=O)c2cn(CC(F)(F)F)nn2)C[C@@H](Nc2cc(C(F)(F)F)nc3ccc(Cl)cc23)C1 [Example 33] |
| < 100 |  | CC(=O)N1C[C@@H](NC(=O)c2cccc(F)c2)C[C@@H](Nc2cc(C(F)(F)F)nc3ccc(Cl)cc23)C1 [Example 36] |
| 100 to 1000 |  | CC(=O)N1C[C@@H](NC(=O)c2cnn(C(C)C)c2)C[C@@H](Nc2cc(C(F)(F)F)nc3ccc(Cl)cc23)C1 [Example 38] |
| < 100 |  | CC(=O)N1C[C@@H](NC(=O)c2cnn(C(F)F)c2)C[C@@H](Nc2cc(C(F)(F)F)nc3ccc(Cl)cc23)C1 [Example 40] |
| > 1000 |  | CN1C[C@@H](NC(=O)c2cccc(NS(C)(=O)=O)c2)C[C@@H](Nc2cc(C(F)(F)F)nc3ccccc23)C1 [Example 51] |
| > 1000 |  | CN1C[C@@H](NC(=O)c2cccc(NS(C)(=O)=O)c2)C[C@@H](N(C)c2cc(C(F)(F)F)nc3ccccc23)C1 [Example 52] |
|  | < 100 | C[C@H](O)Cn1cc(C(=O)N[C@H]2C[C@@H](Nc3cc(C(F)(F)F)nc4ccc(Cl)cc34)CN(C(=O)C(F)F)C2)c(Cl)n1 [Example 124] |
|  | < 100 | O=C(N[C@H]1C[C@@H](Nc2cc(C(F)(F)F)nc3ccc(Cl)cc23)CN(C(=O)C(F)F)C1)N1CC[C@H](O)C1 [Example 127] |
|  | < 100 | CC(=O)N1C[C@@H](NC(=O)c2cn(CC(F)(F)F)nc2C2CC2)C[C@@H](Nc2cc(C(F)(F)F)nc3ccc(OC(F)(F)F)cc23)C1 [Example 132] |
|  | < 100 | CC(=O)N1C[C@@H](NC(=O)c2cn(CC(F)(F)F)nc2C2CC2)C[C@@H](Nc2c(C)c(C(F)(F)F)nc3ccc(Cl)cc23)C1 [Example 135] |

More lines, now with the values behind:

| Structure (SMILES) | EC50 [1] [nM] | EC50 [2] [nM] |
| --- | --- | --- |
| CC(C)(C)C(=O)N1C[C@@H](NC(=O)c2cccc(NS(C)(=O)=O)c2)C[C@@H](Nc2cc(C(F)(F)F)nc3ccc(Cl)cc23)C1 (racemic) [Example 15] | 100 to 1000 |  |
| CC(C)(C)OC(=O)N1C[C@@H](NC(=O)c2cccc(NS(C)(=O)=O)c2)C[C@@H](Nc2cc(C(F)(F)F)nc3ccc(Cl)cc23)C1 [Example 6] | 100 to 1000 |  |
| CS(=O)(=O)Nc1cccc(C(=O)N[C@@H]2CNC[C@H](Nc3cc(C(F)(F)F)nc4ccc(Cl)cc34)C2)c1 [Example 7] | > 1000 |  |
| CNCC(=O)N1C[C@@H](NC(=O)c2cccc(NS(C)(=O)=O)c2)C[C@@H](Nc2cc(C(F)(F)F)nc3ccc(Cl)cc23)C1 [Example 12] | 100 to 1000 |  |
| CN(C)CC(=O)N1C[C@@H](NC(=O)c2cccc(NS(C)(=O)=O)c2)C[C@@H](Nc2cc(C(F)(F)F)nc3ccc(Cl)cc23)C1 [Example 13] | 100 to 1000 |  |
| CS(=O)(=O)Nc1cccc(C(=O)N[C@H]2CC(Nc3cc(C(F)(F)F)nc4ccc(Cl)cc34)CN(C(=O)C3CC3)C2)c1 (some centres unmarked) [Example 16] | 100 to 1000 |  |
| CS(=O)(=O)Nc1cccc(C(=O)N[C@H]2CC(Nc3cc(C(F)(F)F)nc4ccc(Cl)cc34)CN(C(=O)C3CCC3)C2)c1 (some centres unmarked) [Example 17] | 100 to 1000 |  |
| CS(=O)(=O)Nc1cccc(C(=O)N[C@H]2CC(N(C(=O)C3CC3)c3cc(C(F)(F)F)nc4ccc(Cl)cc34)CN(C(=O)C3CC3)C2)c1 (some centres unmarked) [Example 18] | 100 to 1000 |  |
| CS(=O)(=O)Nc1cccc(C(=O)N[C@H]2CC(Nc3cc(C(F)(F)F)nc4ccc(Cl)cc34)CN(C(=O)Nc3ccccc3)C2)c1 (some centres unmarked) [Example 20] | 100 to 1000 |  |
| CC(=O)N1CC(Nc2cc(C(F)(F)F)nc3ccc(F)cc23)C[C@H](NC(=O)c2cccc(NS(C)(=O)=O)c2)C1 (some centres unmarked) [Example 21] | < 100 |  |
| CC(=O)N1C[C@@H](NC(=O)c2ccc(F)c(F)c2)C[C@@H](Nc2cc(C(F)(F)F)nc3ccc(Cl)cc23)C1 [Example 26] | 100 to 1000 |  |
| CC(=O)N1C[C@@H](NC(=O)c2ccc(F)cc2F)C[C@@H](Nc2cc(C(F)(F)F)nc3ccc(Cl)cc23)C1 [Example 27] | 100 to 1000 |  |
| CC(=O)N1C[C@@H](NC(=O)c2cccc(S(C)(=O)=O)c2)C[C@@H](Nc2cc(C(F)(F)F)nc3ccc(Cl)cc23)C1 [Example 28] | < 100 |  |
| CCn1cc(C(=O)N[C@H]2C[C@@H](Nc3cc(C(F)(F)F)nc4ccc(Cl)cc34)CN(C(C)=O)C2)cn1 [Example 31] | < 100 |  |
| CC(=O)N1C[C@@H](NC(=O)c2cnn(C3CCNCC3)c2C)C[C@@H](Nc2cc(C(F)(F)F)nc3ccc(Cl)cc23)C1 [Example 34] | > 1000 |  |
| CC(=O)N1C[C@@H](NC(=O)c2ccccc2F)C[C@@H](Nc2cc(C(F)(F)F)nc3ccc(Cl)cc23)C1 [Example 35] | 100 to 1000 |  |
| CC(=O)N1C[C@@H](NC(=O)c2cc(F)cc(F)c2)C[C@@H](Nc2cc(C(F)(F)F)nc3ccc(Cl)cc23)C1 [Example 37] | 100 to 1000 |  |
| CC(=O)N1C[C@@H](NC(=O)c2cnn(C)c2C)C[C@@H](Nc2cc(C(F)(F)F)nc3ccc(Cl)cc23)C1 [Example 39] | 100 to 1000 |  |
| CS(=O)(=O)Nc1cccc(C(=O)N[C@@H]2CNC[C@H](Nc3ccc(C#N)c(C(F)(F)F)c3)C2)c1 [Example 45] | > 1000 |  |
| CC(=O)N1C[C@@H](NC(=O)c2cccc(NS(C)(=O)=O)c2)C[C@@H](Nc2ccc(C#N)c(C(F)(F)F)c2)C1 [Example 46] | > 1000 |  |
| CC(=O)N1C[C@H](Nc2cc(C(F)(F)F)nc3ccc(Cl)cc23)C[C@H](N(C)C(=O)c2cnn(C)c2)C1 [Example 47] | > 1000 |  |
| CS(=O)(=O)Nc1cccc(NC(=O)[C@@H]2COC[C@H](Nc3cc(C(F)(F)F)nc4ccc(Cl)cc34)C2)c1 [Example 53] | < 100 |  |
| O=C(C(F)F)N1C[C@@H](Nc2nccc3ccccc23)C[C@@H](Nc2cc(C(F)(F)F)nc3ccc(Cl)cc23)C1 [Example 125] |  | < 100 |
| C[C@@H]1CCCN1C(=O)N[C@H]1C[C@@H](Nc2cc(C(F)(F)F)nc3ccc(Cl)cc23)CN(C(=O)C(F)F)C1 [Example 126] |  | < 100 |
| O=C(N[C@H]1C[C@@H](Nc2cc(C(F)(F)F)nc3ccc(Cl)cc23)CN(C(=O)C(F)F)C1)N1CCCC2(CC2)C1 [Example 128] |  | < 100 |
| CC(=O)N1C[C@@H](NC(=O)N2CCc3cn(C)nc3C2)C[C@@H](Nc2cc(C(F)(F)F)nc3ccc(Cl)cc23)C1 [Example 129] |  | < 100 |
| CC(=O)N1C[C@@H](NC(=O)c2cn(CC(F)(F)F)nc2C2CC2)C[C@@H](Nc2c(F)c(C(F)(F)F)nc3cc(F)c(Cl)cc23)C1 [Example 130] |  | < 100 |
| CC(=O)N1C[C@@H](NC(=O)c2cn(CC(F)(F)F)nc2C2CC2)C[C@@H](Nc2cc(C(F)(F)F)nc3cc(F)c(Cl)cc23)C1 [Example 133] |  | < 100 |
| CC(=O)N1C[C@@H](NC(=O)c2cn(CC(F)(F)F)nc2C2CC2)C[C@@H](Nc2c(F)c(C(F)(F)F)nc3ccc(Cl)cc23)C1 [Example 136] |  | < 100 |
| CC(=O)N1C[C@@H](NC(=O)c2cn(CC(F)(F)F)nc2C2CC2)C[C@@H](Nc2cc(C(F)(F)F)nc3c(F)cc(Cl)cc23)C1 [Example 139] |  | < 100 |
